Source: publication PMC7203344, “Sirtuin 1 Inhibiting Thiocyanates (S1th)—A New Class of Isotype Selective Inhibitors of NAD^+ Dependent Lysine Deacetylases” (Frontiers in Oncology, 2020)

Columns and labels:
human Sirt3 = molecular target: T1, human Sirt3 (Homo sapiens, UniProt Q9NTG7); assay: Homogeneous ZMAL-based fluorescence assay, Sirt3; assay type: biochemical; settings: 4th round
T1 construct: Human Sirt3_118−395 was expressed and purified as described previously; made in house
T1 sequence (Q9NTG7 118-395): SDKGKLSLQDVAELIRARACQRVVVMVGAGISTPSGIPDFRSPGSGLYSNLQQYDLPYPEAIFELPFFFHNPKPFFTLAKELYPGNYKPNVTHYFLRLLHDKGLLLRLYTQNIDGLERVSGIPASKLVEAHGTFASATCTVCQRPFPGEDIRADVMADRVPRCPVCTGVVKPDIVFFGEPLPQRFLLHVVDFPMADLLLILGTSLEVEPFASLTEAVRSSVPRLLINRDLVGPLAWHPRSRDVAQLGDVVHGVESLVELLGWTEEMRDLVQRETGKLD
Method: (§1) Recombinant human Sirt5_37−310 was purchased readily in Tris Buffer [25 mM Tris, 100 mM NaCl, 5 mM DTT, 10% glycerol (v/v)] from Enzo Life Sciences (NY, USA). Human Sirt3_118−395 was expressed and purified as described previously ([54]). For expression of human Sirt1_134−747 and Sirt2_56−356 chemically competent cells of E. coli BL21 Star (DE3) were transformed with the expression vectors pET30S-hSirt1_134−747 or pET30S-hSirt2_56−356. Bacteria were grown at 37°C in 2×YT medium supplemented with 50 μg·mL^−1 of kanamycin to an OD600 of 0.6. Then isopropyl-β-D-1-thiogalactopyranoside (IPTG) was added to a final concentration of 1 mM to induce gene expression. After further cultivation at 20°C for 12 h, the cells were harvested by centrifugation for 15 min at 5,000 g. The cells were resuspended in lysis buffer [100 mM Tris/HCl buffer at pH 8.0, 150 mM NaCl and 10% (v/v) glycerol] and disrupted by ultrasonication (Branson Digital Sonifier 250) at 70% amplitude for 10 min (3 s working, 10 s pause). The crude extract was cleared by centrifugation at 100,000 g for 1 h, and the supernatant was loaded onto a Strep-Tactin Superflow cartridge (5 ml bed volume, IBA Lifescience, Germany). Target proteins were eluted with lysis buffer containing 5 mM D-Desthiobiotin (IBA Lifescience, Germany) and further separated by size-exclusion chromatography (Superdex S200 26/60, GE Healthcare, IL, USA) equilibrated in Tris/HCl buffer (20 mM, 150 mM NaCl, pH 8.0). Pure protein was concentrated by ultrafiltration, flash-frozen in liquid nitrogen and stored at −80°C until further use. Identity as well as purity were verified by SDS-PAGE ([55]) and protein concentration was determined by the bicinchoninic acid (BCA) method, using bovine serum albumin (BSA) as a standard ([56]). Deacetylase activity was confirmed to be NAD^+-dependent and could be inhibited with the physiological sirtuin inhibitor nicotinamide.
(§2) All compounds were tested in the trypsin-coupled high-throughput ZMAL-assay in black 96-well plates (OptiPlateTM−96F, black, 96 well, Pinch bar design, PerkinElmer, USA), using ZMAL (Z-Lys(acetyl)-AMC) as a substrate ([57]). Sirt1_134−747, Sirt2_56−356, and Sirt3_118−395 were mixed with 5 μL substrate (10.5 μM final assay concentration, diluted from a […] stock in DMSO) and 3 μL Inhibitor in DMSO at various concentrations or DMSO as a control [final DMSO concentration 5% (v/v)]. The mixture was supplemented with assay buffer (50 mM Tris/HCl, 137 mM NaCl, 2.7 mM KCl, 1 mM MgCL2, pH 8.0) to a total volume of 55 μL. Enzyme concentration was adjusted to get a final conversion of 20–30%. Addition of 5 μL NAD^+ (6 mM in assay buffer, final assay concentration of 500 μM) initiated the catalytic reaction and the plates were incubated at 37°C for 4 h with agitation at 140 rpm. The catalytic reaction was stopped by addition of 60 μL stop solution [50 mM Tris, 100 mM NaCl, 6.7% (V/V) DMSO, 5.5 U/μL trypsin, 8 μM nicotinamide, pH 8.0]. The plate was again incubated at 37°C and 140 rpm for 20 min to release free AMC from the deacetylated substrate by trypsin digestion. Afterwards, fluorescence intensity was measured in a microplate reader (λEx = 390 nm, λEm = 460 nm, BMG POLARstar Optima, BMG Labtech, Germany). An enzyme-free blank control and a 100% conversion control containing AMC instead of ZMAL were measured in addition. Inhibition was calculated in % in relation to a DMSO control after blank signal subtraction and IC50 values were determined using a non-linear regression to fit the dose-response curve with OriginPro 9G (OriginLab, USA). Pre-tests as well as IC50 determination was carried out at least twice in duplicates.

human Sirt2 = molecular target: T2, human Sirt2 (Homo sapiens, UniProt Q8IXJ6); assay: Homogeneous ZMAL-based fluorescence assay, Sirt2; assay type: biochemical; settings: 4th round
T2 construct: made in house; host or cells: E. coli BL21 Star (DE3)
T2 sequence (Q8IXJ6 56-356): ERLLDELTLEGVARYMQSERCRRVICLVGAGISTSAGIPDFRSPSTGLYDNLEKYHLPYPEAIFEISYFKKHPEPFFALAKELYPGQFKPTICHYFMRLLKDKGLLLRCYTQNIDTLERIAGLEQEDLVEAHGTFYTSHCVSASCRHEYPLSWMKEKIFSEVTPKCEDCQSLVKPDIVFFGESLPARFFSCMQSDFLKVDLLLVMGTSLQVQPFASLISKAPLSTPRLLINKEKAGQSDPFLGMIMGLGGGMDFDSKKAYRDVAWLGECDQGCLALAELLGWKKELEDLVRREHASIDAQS
Method: as §1, §2

[1] = tested on: γH2AX/H2AX levels in MEF cells; assay: γH2AX level determination by western blot; assay type: cell-based, mouse; settings: 48 h, EX-527 10 μM, S1th 10 30 μM, S1th 12 20 μM, S1th 13 12 μM, SirReal2 30 μM
Method: Sirt1 WT and KO MEFS cells were treated with 10 μM EX-527, 12 μM S1th 13 (6), 20 μM S1th 12 (5), 30 μM S1th 10 (7) and 30 μM SirReal2 [Sirt2 inhibitor, synthesized according to ([62])] for 48 h. Oxidative stress was induced using 10 μM Camptothecin 2 h. Whole-cell extracts were performed according to the Dignam protocol ([63]). Primary antibodies used for the western blot were anti-H2AX and anti-γH2AX (ab11175 and ab2893 resp., Abcam, UK). Densiometric analysis of the western blots was performed with Quantity One software (Bio-Rad Laboratories, Inc., USA).

Compound	inhibition at 50 µM (human Sirt3) [%]	inhibition at 50 µM (human Sirt2) [%]	γH2AX/H2AX levels without Camptothecin [1]
N#CSc1cc(SC#N)c(N)nc1N [PR-619, reference compound]	< 10	36	
N#CSc1cccc(NC(=O)[C@H]2CC=CC[C@H]2C(=O)O)c1 [S1th 10]	< 10	< 10	decreased

Continued, in another order:

inhibition at 50 µM (human Sirt3) [%]	inhibition at 50 µM (human Sirt2) [%]	Compound	γH2AX/H2AX levels without Camptothecin [1]
< 10	< 10	CCCCNC(=O)Nc1cccc(SC#N)c1 [S1th 11]	
< 10	< 10	COc1ccc(SC#N)cc1OCC(=O)N(CCC#N)CCC#N [S1th 12]	decreased
< 10	< 10	N#CSc1cccc(NS(=O)(=O)c2ccc3c(c2)OCCO3)c1 [S1th 13]	decreased
